In US12678453B2, “Aerosolized formulations of HIV protease inhibitors for the treatment of airway reflux” (The Medical College of Wisconsin, Inc., priority 2020, dated 2026):

target: T1, porcine pepsin A (Sus scrofa, UniProt P00791); assay: co-crystallization of inhibitors with pepsin; type: binding; conditions: crystal structures of porcine pepsin complexes
T1 construct: purchased Worthington Biochemical Corporation
Protocol: Lyophilized porcine pepsin A (Worthington Biochemical Corporation) was dissolved in water at 200 mg/mL. All ligand stock solutions, except for saquinavir mesylate, were prepared as saturated solutions in DMSO in order to dissolve the maximal amount of ligand. The solutions were centrifuged and an appropriate volume of the supernatant was added to the pepsin solution so that final mixture contained 1.6% of the ligand stock by volume. The mixtures were incubated at room temperature for 1 h, centrifuged for 10 min at 31,000 rcf, and the supernatant was used for crystallization experiments. […] In order to maximize the solubility of saquinavir in the crystallization solution, we tested solutions from the CryoSol screen (Molecular Dimensions) (PMID 28626721). Mixture SM2 consisting of 37.5% v/v dioxane, 25% v/v DMSO, 12.5% v/v ethylene glycol, 12.5% v/v 1,2-propanediol, and 12.5% v/v glycerol allowed us to increase the amount of ligand solution in the co-crystallization mixture without damaging the protein. The saturated solution of saquinavir in SM2 was treated in the same manner as solutions of other ligands except that its amount in the solution with pepsin was increased to 5% by volume.
The initial crystallization condition was identified by screening 200 mg/mL ligand-free porcine pepsin against the Salt RX screen (Hampton Research). Small bipyramid-shaped crystals were obtained in 3.5 M ammonium chloride and 0.1 M sodium acetate trihydrate pH 4.6 after 1 week of incubation at room temperature. […] Diffraction quality crystals formed after 2-7 days from hanging drops containing 2 μL of pepsin at concentrations of 180-210 mg/mL and 1 μL of a microseed solution serially diluted 10-100× above a well solution containing 3 M-4 M ammonium chloride and 0.1 M sodium acetate trihydrate pH 4.6. The crystals were shaped as triangular bi-pyramids with dimensions approximately 200×100×100 μm. Crystals were cryoprotected by soaking them in 30% w/v glucose, 5 M ammonium chloride and 0.1 M sodium acetate trihydrate pH 4.6 and then plunging them in liquid nitrogen.
The complex with saquinavir was crystallized in the same manner except that we used 0.1 M acetic acid instead of 0.1 M sodium acetate trihydrate pH 4.6 because this change allowed us to grow large crystals without the need for a microseeding solution. Cryoprotection was accomplished using 30% w/v glucose, 3 M ammonium chloride and 0.1 M acetic acid, followed by plunging in liquid nitrogen.
Pepsin·APV: A 1.9 Å diffraction data set was collected at the Life Sciences Collaborative Access Team beamline (LS-CAT) 21-ID-F at the Advanced Photon Source (APS) equipped with a MAR 300 CCD detector using a 50×50 μm beam at a wavelength of 0.97872 Å. […]

T1 sequence (P00791 60-385): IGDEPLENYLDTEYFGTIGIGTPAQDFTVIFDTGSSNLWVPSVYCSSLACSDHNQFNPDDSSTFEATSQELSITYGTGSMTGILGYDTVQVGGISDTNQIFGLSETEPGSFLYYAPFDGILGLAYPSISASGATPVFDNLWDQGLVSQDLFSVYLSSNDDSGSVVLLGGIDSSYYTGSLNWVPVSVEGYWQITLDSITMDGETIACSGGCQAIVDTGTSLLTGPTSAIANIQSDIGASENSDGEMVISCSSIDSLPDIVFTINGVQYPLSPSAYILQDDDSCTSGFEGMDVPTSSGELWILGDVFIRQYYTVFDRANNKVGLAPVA

Row | binding at the active site of pepsin by co-crystallization | SMILES
1 | bind in the pepsin active site | CC(C)CN(C[C@@H](O)[C@H](Cc1ccccc1)NC(=O)O[C@H]1CCOC1)S(=O)(=O)c1ccc(N)cc1 [amprenavir, [(3S)-oxolan-3-yl] N-[(2S,3R)-4-[(4-aminophenyl)sulfonyl-(2-methylpropyl)amino]-3-hydroxy-1-phenylbutan-2-yl]carbamate]
2 | bind at the active site of pepsin | CC(C)c1nc(CN(C)C(=O)N[C@H](C(=O)N[C@@H](Cc2ccccc2)C[C@H](O)[C@H](Cc2ccccc2)NC(=O)OCc2cncs2)C(C)C)cs1 [ritonavir, 1,3-thiazol-5-ylmethyl N-[(2S,3 S,5S)-3-hydroxy-5-[[(2S)-3-methyl-2-[[methyl-[(2-propan-2-yl-1,3-thiazol-4-yl)methyl]carbamoyl]amino]butanoyl]amino]-1,6-diphenylhexan-2-yl]carbamate]
3 | bind at the active site of pepsin | CC(C)(C)NC(=O)[C@@H]1C[C@@H]2CCCC[C@@H]2CN1C[C@@H](O)[C@H](Cc1ccccc1)NC(=O)[C@H](CC(N)=O)NC(=O)c1ccc2ccccc2n1 [saquinavir, (2S)—N-[(2S,3R)-4-[(3 S,4aS,8aS)-3-(tert-butylcarbamoyl)-3,4,4a,5,6,7,8,8a-octahydro-1H-isoquinolin-2-yl]-3-hydroxy-1-phenylbutan-2-yl]-2-(quinoline-2-carbonylamino)butanediamide]

Row | SMILES | binding at the active site of pepsin by co-crystallization
4 | CC(C)CN(C[C@@H](O)[C@H](Cc1ccccc1)NC(=O)O[C@H]1CO[C@H]2OCC[C@H]21)S(=O)(=O)c1ccc(N)cc1 [darunavir, [(3a S,4R,6aR)-2,3,3a,4,5,6a-hexahydrofuro[2,3-b]furan-4-yl] N-[(2S,3R)-4-[(4-aminophenyl)sulfonyl-(2-methylpropyl)amino]-3-hydroxy-1-phenylbutan-2-yl]carbamate] | bind at the active site of pepsin
